Molecular target: T1, BRD4 BD1 (Homo sapiens, UniProt O60885)
T1 construct: Protein BRD4 BD1 used in the assay was purchased from Active Motif (cat. 31380); purchased Active Motif 31380
Experiment: HTRF in vitro enzyme activity assay, inhibition of BRD4 BD1 binding to acetylated H4 peptide
Settings: IC50 values of the compounds against BRD4 BD1 binding; class symbols A/B/C
Procedure: Effect Examples: In Vitro Enzyme Activity Assay
Half inhibitory activity (IC50) of the compounds of the invention against the bromodomain protein BRD4 BD1 was determined in the present Examples.
The compounds of the invention were tested for inhibitory activity against BRD4 BD1 with Homogeneous Time-Resolved Fluorescence (HTRF).
2. Reagents, Consumable Materials and Instruments:
Protein BRD4 BD1 used in the assay was purchased from Active Motif (cat. 31380); streptavidin XL-665 (#610SAXLA) and EPIgeneous Binding Domain Kit A (#62BDAPEG) were both purchased from Cisbio Bioassays; [Lys(5,8,12,16)Ac] H4(1-21)-biotin (#64989), [Lys(5,8,12,16)Ac]H4(1-25) were available from Anaspec; OTX015 and ABBV-075 were purchased from Selleckchem Co. The 384-well ProxiPlate (#6008280) was purchased from Perkinelmer Co. The Laboratory microplate reader (Envision 2104) was available from PerkinElmer Co. The water used in the assay was Millipore-Q pure water.
3. Formulation of the Compound
10 mM DMSO stock solution of the test compound was diluted to 1 mM in DMSO, and then diluted 10-fold in Binding Domain dilution buffer (purchased from Cisbio Bioassays) for use (DMSO concentration in the final system was 0.1%), including 5 concentrations in 1:5 gradient.
4. Assay Protocol: 1 Batch, 2 Repeats
1) 5 μL of test compound was transferred to 45 μL Binding Domain dilution buffer.
2) 2 μL of 1× compound (4 μL Binding Domain dilution buffer: positive control; 6 μL enzyme buffer (purchased from Cisbio Bioassays): negative control) was transferred to a reaction plate.
3) 4 μL of 5×BRD 4(1) was added to the reaction plate (30 nM in the final system).
4) 4 μL of 5×[Lys(5,8,12,16)Ac] H4(1-21)-biotin was added to the reaction plate, and the plate was covered with a film and incubated at 37° C. for 30 min.
5) A detection mixture of SA-XL665 (2×) and anti-H3K9me0-Eu(K) (2×) was prepared in detection buffer (purchased from Cisbio Bioassays).
6) 10 μL of detection mixture (2×) was added to each well, incubated at RT for 3 h. The mp value was read by microplate reader Envision with the following parameters: […]

Structure (SMILES)	IC50
C[C@H]1Nc2nc(N3C(=O)CCC3c3ccccc3)ccc2N(C)C1=O (single isomer, unassigned) [Example A20-P1]	10 to 100 nM
CC1C(=O)N(C)c2ccc(N3C(=O)CCC3c3ccc(F)cc3)nc2N1C1CC1 (single isomer, unassigned) [Example A22-P1, 4-cyclopropyl-6-(2-(4-fluorophenyl)-5-oxopyrrolidin-1-yl)-1,3-dimethyl-3,4-dihydropyrido[2,3-b]pyrazin-2(1H)-one]	10 to 100 nM
CCSc1cccc2c1C(=O)N(c1ccc3c(n1)N(C1CC1)C(C)C(=O)N3C)C2c1cccnc1 (single isomer, unassigned) [Example A66-P3]	≤ 10 nM
CC1C(=O)N(C)c2ccc(N3C(=O)c4ccccc4C3c3ccc(F)nc3)nc2N1C1CC1 (single isomer, unassigned) [Example A67-P3, 4-cyclopropyl-1,3-dimethyl-6-(1-oxo-3-(6-fluoropyridin-3-yl)isoindolin-2-yl)-3,4-dihydropyrido[3,2-b]pyrazin-2-(1H)-one]	≤ 10 nM
CC1C(=O)N(C)c2ccc(N3C(=O)c4ccccc4C3c3ccc(F)cn3)nc2N1C1CC1 (single isomer, unassigned) [Example A68-P3, 4-cyclopropyl-6-(1-(5-fluoropyridin-2-yl)-3-oxoisoindolin-2-yl)-1,3-dimethyl-3,4-dihydropyrido[2,3-b]pyrazin-2(1H)-one]	≤ 10 nM
CC1C(=O)N(C)c2ccc(N3C(=O)c4ccccc4C3c3ccccn3)nc2N1C1CC1 (single isomer, unassigned) [Example A69-P3, 4-cyclopropyl-1,3-dimethyl-6-(1-oxo-3-(pyridin-2-yl)isoindolin-2-yl)-3,4-dihydropyrido[2,3-b]pyrazin-2(1H)-one]	≤ 10 nM
CC1C(=O)N(C)c2cnc(N3C(=O)c4ccccc4C3c3cccnc3)cc2N1C1CC1 (single isomer, unassigned) [Example A70-P3, 1-cyclopropyl-2,4-dimethyl-7-(1-oxo-3-(pyridin-3-yl)isoindolin-2-yl)-1,4-dihydropyrido[3,4-b]pyrazin-3(2H)-one]	≤ 10 nM
CC1C(=O)N(C)c2c(F)cc(N3C(=O)c4ccccc4C3c3cccnc3)cc2N1C1CC1 (single isomer, unassigned) [Example A71-P4, 4-cyclopropyl-8-fluoro-1,3-dimethyl-6-(1-oxo-3-(pyridin-3-yl)isoindolin-2-yl)-3,4-dihydroquinoxalin-2(1H)-one]	≤ 10 nM
CC1C(=O)N(C)c2ccc(N3C(=O)c4sccc4C3c3cccnc3)nc2N1C1CC1 (single isomer, unassigned) [Example A72-P4, 5-(4-cyclopropyl-1,3-dimethyl-2-oxo-1,2,3,4-tetrahydropyrido[2,3-b]pyrazin-6-yl)-4-(pyridin-3-yl)-4,5-dihydro-6H-thieno[2,3-c]pyrrol-6-one]	≤ 10 nM
CC1C(=O)N(C)c2ccc(N3C(=O)c4cc(F)ccc4C3c3cccnc3)nc2N1C1CC1 (single isomer, unassigned) [Example A74-P4, 4-cyclopropyl-6-(5-fluoro-3-oxo-1-(pyridin-3-yl)isoindolin-2-yl)-1,3-dimethyl-3,4-dihydropyrido[2,3-b]pyrazin-2(1H)-one]	≤ 10 nM
CC1C(=O)N(C)c2ccc(N3C(=O)c4cccc(F)c4C3c3cccnc3)nc2N1C1CC1 (single isomer, unassigned) [Example A75-P3, 4-cyclopropyl-6-(7-fluoro-3-oxo-1-(pyridin-3-yl)isoindolin-2-yl)-1,3-dimethyl-3,4-dihydropyrido[2,3-b]pyrazin-2(1H)-one]	≤ 10 nM
C[C@@H]1C(=O)N(C)c2ccc(N3C(=O)c4cccnc4C3(O)c3ccccc3)nc2N1C (single isomer, unassigned) [Example A76-P1]	≤ 10 nM
CC1C(=O)N(C)c2ccc(N3C(=O)c4cc(C(=O)N5CCN(C)CC5)ccc4C3c3ccc(F)cc3)nc2N1C1CC1 (single isomer, unassigned) [Example A78-P4, 4-cyclopropyl-6-(1-(4-fluorophenyl)-5-(4-methylpiperazine-1-carbonyl)-3-oxoisoindolin-2-yl)-1,3-dimethyl-3,4-dihydropyrido[2,3-b]pyrazin-2(1H)-one]	≤ 10 nM
CC1C(=O)N(C)c2ccc(N3C(=O)c4c(cccc4C(C)(C)O)C3c3ccc(F)cc3)nc2N1C1CC1 (single isomer, unassigned) [Example A79-P4, 4-cyclopropyl-6-(1-(4-fluorophenyl)-4-(2-hydroxyprop-2-yl)-3-oxoisoindolin-2-yl)-1,3-dimethyl-3,4-dihydropyrido[2,3-b]pyrazin-2(1H)-one]	≤ 10 nM

Results, then the compound that gave them:

IC50	Structure (SMILES)
≤ 10 nM	CC1Oc2nc(N3C(=O)CCC3c3ccc(F)cc3)ccc2N(C)C1=O (single isomer, unassigned) [Example A21-P1, 6-(2-(4-fluorophenyl)-5-oxopyrrolidin-1-yl)-1,3-dimethyl-1H-pyrido[2,3-B][1,4]oxazin-2(3H)-one]
≤ 10 nM	CC1C(=O)N(C)c2ccc(N3C(=O)c4ccccc4C3c3ccc(F)cc3)nc2N1C1CC1 (single isomer, unassigned) [Example A23P4, 4-cyclopropyl-6-(1-(4-fluorophenyl)-3-oxoisoindolin-2-yl)-1,3-dimethyl-3,4-dihydropyrido[2,3-b]pyrazin-2(1H)-one]
≤ 10 nM	Cc1ccc(-n2c3ccccc3c(=O)n2-c2ccc3c(n2)N(C2CC2)C(C)C(=O)N3C)cn1 (single isomer, unassigned) [Example A50-P1, 6-(1-(6-methyl-pyridin-3-yl)-3-oxo-1,3-dihydro-2H-indazol-2-yl)-4-cyclopropyl-1-methyl-3-methyl-3,4-dihydropyridine [2,3-b]pyrazin-2(1H)-one]
≤ 10 nM	Cc1ccc(-n2c3ccccc3c(=O)n2-c2ccc3c(n2)N(C2CC2)C(C)C(=O)N3C)cn1 (single isomer, unassigned) [Example A50-P3, 6-(1-(6-methyl-pyridin-3-yl)-3-oxo-1,3-dihydro-2H-indazol-2-yl)-4-cyclopropyl-1-methyl-3-methyl-3,4-dihydropyridine [2,3-b]pyrazin-2(1H)-one]
≤ 10 nM	Cc1ccc(-n2c3ccccc3c(=O)n2-c2ccc3c(n2)N(C2CC2)C(C)C(=O)N3C)cn1 (single isomer, unassigned) [Example A50-P4, 6-(1-(6-methyl-pyridin-3-yl)-3-oxo-1,3-dihydro-2H-indazol-2-yl)-4-cyclopropyl-1-methyl-3-methyl-3,4-dihydropyridine [2,3-b]pyrazin-2(1H)-one]
≤ 10 nM	C[C@@H]1C(=O)N(C)c2ccc(N3C(=O)c4ccccc4C3c3cccnc3)nc2N1CCF (single isomer, unassigned) [Example A55-P2, 4-(2-fluoroethyl)-1,3-dimethyl-6-(1-oxo-3-(pyridin-3-yl)isoindolin-2-yl)-3,4-dihydropyrido [2,3-b]pyrazin-2(1H)-one]
≤ 10 nM	CC1C(=O)N(C)c2ccc(N3C(=O)c4c(cccc4[S+](C)[O-])C3c3cccnc3)nc2N1C1CC1 (single isomer, unassigned) [Example A60-P1]
≤ 10 nM	CC1C(=O)N(C)c2ccc(N3C(=O)c4c(cccc4[S+](C)[O-])C3c3cccnc3)nc2N1C1CC1 (single isomer, unassigned) [Example A60-P2]
≤ 10 nM	CC1C(=O)N(C)c2ccc(N3C(=O)c4c(cccc4[S+](C)[O-])C3c3cccnc3)nc2N1C1CC1 (single isomer, unassigned) [Example A60-P3]
≤ 10 nM	C[C@@H]1C(=O)N(C)c2ccc(N3C(=O)c4c(cccc4S(C)(=O)=O)C3c3cccnc3)nc2N1C (single isomer, unassigned) [Example A62-P1]
≤ 10 nM	C[C@@H]1C(=O)N(C)c2ccc(N3C(=O)c4c(cccc4[S+](C)[O-])C3c3cccnc3)nc2N1C (single isomer, unassigned) [Example A63-P3]
≤ 10 nM	C[C@@H]1C(=O)N(C)c2ccc(N3C(=O)c4c(cccc4[S+](C)[O-])C3c3cccnc3)nc2N1C (single isomer, unassigned) [Example A63-P4]
≤ 10 nM	CC1C(=O)N(C)c2ccc(N3C(=O)c4c(cccc4S(C)(=O)=O)C3c3cccnc3)nc2N1C1CC1 (single isomer, unassigned) [Example A64-P3, 4-cyclopropyl-1,3-dimethyl-6-(4-(methanesulfonyl)-3-oxo-1-(pyridin-3-yl)isoindolin-2-yl)-3,4-dihydropyrido[2,3-b]pyrazin-2(1H)-one]
≤ 10 nM	CSc1cccc2c1C(=O)N(c1ccc3c(n1)N(C1CC1)C(C)C(=O)N3C)C2c1cccnc1 (single isomer, unassigned) [Example A65-P3, 4-cyclopropyl-1,3-dimethyl-6-(4-(methylthio)-3-oxo-1-(pyridin-3-yl)isoindolin-2-yl)-3,4-dihydropyrido[2,3-b]pyrazin-2(1H)-one]
